These results are taken from PubChem BioAssay (NCI).

Some test systems named below: HCC-2998 colon; NCI-H226 lung; NCI/ADR-RES ovarian; SF-268 CNS; SNB-19 CNS; TK-10 renal; CCRF-CEM leukemia; LOX IMVI melanoma; SF-295 CNS; RXF 393 renal.
What all share (test): NCI-60 cell line screen, 48 h

The structures appear in SMILES notation. Several values for one entry are separate records, joined by “and”; a condition that tells them apart may be missing. Equal values may be shown once.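 Protocol summary: plate cells (96-well), add compound at 5 concentrations, incubate 48 h, interpolate endpoints linearly. GI50 marks 50% less growth. At the TGI there is no net growth.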 Some results are limits rather than exact numbers.

Consider `COc1cc(/C=C/c2cc(/C=C/c3ccc(O)c(OC)c3)n(-c3c(C)cccc3C)c(=O)n2)ccc1O`, for which the GI50 was 2.28 µM in the assay on HCC-2998 colon; 2.36 µM in the assay with NCI-H226 lung; 1.42 µM in the assay on NCI/ADR-RES ovarian; 1.19 µM with SF-268 CNS; 2.38 µM with SNB-19 CNS; 1.14 µM in the assay with TK-10 renal. The TGI in the assay on HCC-2998 colon worked out at 9.15 µM; in the assay with NCI-H226 lung it was 7.59 µM; with NCI/ADR-RES ovarian it was 5.77 µM; in the assay on SF-268 CNS, 11.5 µM; in the assay on SNB-19 CNS, 9.19 µM; in the assay on TK-10 renal, 4.87 µM.
In the case of `COc1cccc(C2C(C#N)=C(N)Oc3cc(N)ccc32)c1` (configuration not stated), the GI50 with CCRF-CEM leukemia was 0.32 µM; in the assay with HCC-2998 colon it was 0.82 µM; in the assay with LOX IMVI melanoma it was 0.506 µM; with NCI-H226 lung, 5.52 µM; in the assay with NCI/ADR-RES ovarian, 0.346 µM; in the assay on SF-268 CNS, 1.57 µM. Besides, the values for the GI50 with SF-295 CNS and in the assay with TK-10 renal were 0.376 µM and 2.83 µM, respectively. Also, the TGI with HCC-2998 colon is above 100 µM; in the assay with LOX IMVI melanoma it was above 100 µM; with NCI-H226 lung, above 100 µM; in the assay with NCI/ADR-RES ovarian, 4.38 µM; in the assay on SF-268 CNS, above 100 µM; in the assay with SF-295 CNS it was above 100 µM. Also, the TGI in the assay with SNB-19 CNS and with TK-10 renal was above 100 µM in each case.
On to `CC(C)CCOc1ccc(-c2n[nH]c(C(F)(F)F)c2-c2cncc(C#N)c2)c(O)c1`, for which the GI50 in the assay with HCC-2998 colon is 3.05 µM; in the assay on LOX IMVI melanoma, 2.77 µM; in the assay with NCI-H226 lung, 2.57 µM; with NCI/ADR-RES ovarian, 2.2 µM; with RXF 393 renal, 1.96 µM; in the assay with SF-268 CNS, 4.18 µM. Further, the GI50 in the assay on SF-295 CNS was 2.33 µM; with SNB-19 CNS it was 2.98 µM; in the assay with TK-10 renal, 3.15 µM. Further, the TGI in the assay on HCC-2998 colon was 24.3 µM; with LOX IMVI melanoma, 8.98 µM; in the assay with NCI-H226 lung, 9.98 µM; in the assay with NCI/ADR-RES ovarian it was 7.35 µM; with RXF 393 renal, 6.15 µM; in the assay on SF-268 CNS, above 100 µM. Further, the TGI with SF-295 CNS came out at 6.7 µM; in the assay with SNB-19 CNS, 31.5 µM; with TK-10 renal it was 14.1 µM.
Take `CCN(CC)CCCNc1cccc2c(SCc3ccccc3)ccnc12`: the GI50 in the assay with CCRF-CEM leukemia is 0.179 µM; in the assay on HCC-2998 colon, 1.73 µM; with NCI-H226 lung, 3.45 µM; with NCI/ADR-RES ovarian it was 1.96 µM; in the assay with RXF 393 renal it was 1.87 µM; in the assay with SF-268 CNS, 1.51 µM. Also, the GI50 with SF-295 CNS is 1.8 µM; in the assay with SNB-19 CNS, 1.83 µM; in the assay on TK-10 renal, 1.56 µM. Besides, the TGI worked out at 3 µM with CCRF-CEM leukemia; 3.2 µM in the assay with HCC-2998 colon; 15.6 µM with NCI-H226 lung; 5.6 µM in the assay on NCI/ADR-RES ovarian; 3.44 µM with RXF 393 renal; 3.33 µM with SF-268 CNS. Also, the TGI in the assay with SF-295 CNS was 3.48 µM; with SNB-19 CNS, 3.89 µM; in the assay on TK-10 renal, 2.98 µM.
For the molecule `CCSCC(N)C(=O)O` (configuration not stated), the TGI in the assay on CCRF-CEM leukemia, in the assay on LOX IMVI melanoma, in the assay on NCI-H226 lung, in the assay on NCI/ADR-RES ovarian, in the assay on RXF 393 renal and in the assay with SF-268 CNS was above 100 µM throughout. The TGI with SF-295 CNS, in the assay on SNB-19 CNS and in the assay on TK-10 renal was above 100 µM throughout.
For the molecule `CC[C@H]1CN2CCc3cc(OC)c(OC)cc3[C@@H]2C[C@@H]1C[C@H]1NCCc2cc(O)c(OC)cc21`, the TGI in the assay with HCC-2998 colon is 0.0484 µM and 0.0472 µM; in the assay with LOX IMVI melanoma, 0.0134 µM; in the assay on NCI-H226 lung it was 0.0593 µM and 0.0285 µM; with NCI/ADR-RES ovarian, > 100 µM and 10.7 µM; in the assay on RXF 393 renal, 0.0518 µM and 0.0717 µM; in the assay on SF-295 CNS, 0.0674 µM and 0.0385 µM and 0.153 µM. In addition, the TGI was 0.0977 µM and 0.0271 µM in the assay with SNB-19 CNS; 0.0644 µM with TK-10 renal. Further, the GI50 was 0.00437 µM in the assay on LOX IMVI melanoma; 0.0278 µM and < 0.0128 µM with TK-10 renal.
`CCOC(=O)c1sc2nc3sc(N=Nc4ccc(Cl)cc4)c(O)n3c(=S)c2c1C`: the GI50 with CCRF-CEM leukemia is 32.2 µM; in the assay with LOX IMVI melanoma, 26.1 µM; in the assay on NCI/ADR-RES ovarian it was 17.4 µM; in the assay with RXF 393 renal it was 20.6 µM; with SF-268 CNS, 19.7 µM; with SF-295 CNS, 31 µM. In addition, the values for the GI50 in the assay on SNB-19 CNS and in the assay with TK-10 renal were 27.4 µM and 25.9 µM, respectively. Further, the TGI with CCRF-CEM leukemia is above 100 µM; in the assay on LOX IMVI melanoma it was 87.1 µM; in the assay on NCI-H226 lung it was 21.6 µM; in the assay on NCI/ADR-RES ovarian it was 44.6 µM; in the assay on RXF 393 renal, 90.4 µM; in the assay with SF-268 CNS, 82 µM. Also, the TGI with SF-295 CNS was above 100 µM; in the assay on SNB-19 CNS, above 100 µM; in the assay with TK-10 renal it was 96.4 µM.
For `COc1ccc(/C(Cl)=C(\C=O)c2ccc([N+](=O)[O-])cc2)cc1OC`, the TGI is above 24.7 µM with CCRF-CEM leukemia; 12.4 µM with LOX IMVI melanoma; above 54.8 µM with NCI-H226 lung; 53.3 µM in the assay with NCI/ADR-RES ovarian; 19.2 µM with RXF 393 renal; 29.4 µM in the assay with SF-268 CNS. Besides, the TGI in the assay on SF-295 CNS is 44.2 µM; in the assay on SNB-19 CNS, above 100 µM; with TK-10 renal, above 47.3 µM.
Take `CCCCCCCC/C=C/CCCCCCCCC1=NCCN1CCO`: the GI50 in the assay on CCRF-CEM leukemia was 1.91 µM; in the assay with HCC-2998 colon, 14.2 µM; in the assay on NCI-H226 lung, 9.91 µM; in the assay with NCI/ADR-RES ovarian, 8.44 µM; in the assay on RXF 393 renal, 3.88 µM; in the assay on SF-268 CNS, 3.66 µM. The results for the GI50 with SF-295 CNS, in the assay with SNB-19 CNS and in the assay with TK-10 renal were 1.93 µM, 7.21 µM and 12.6 µM, respectively. Further, the TGI in the assay with CCRF-CEM leukemia amounted to 4.96 µM; in the assay on HCC-2998 colon it was 34.2 µM; in the assay with NCI-H226 lung, 33.7 µM; with NCI/ADR-RES ovarian, 38.4 µM; with RXF 393 renal it was 19.6 µM; in the assay on SF-268 CNS, 16.2 µM. Moreover, the TGI in the assay on SF-295 CNS stood at 4.05 µM; in the assay with SNB-19 CNS, 33.2 µM; in the assay on TK-10 renal it was 26.7 µM.
